{
  "source": "patent US10301355B2",
  "about": "“Method of using pharmaceutical compositions comprising selective peptide-based agonists of melanocortin 1 receptor” (University of Cincinnati, priority 2012, dated 2019)",
  "key": {"tyrosinase": {"test_system": "tyrosinase", "assay": "Stimulation of tyrosinase activity in cultured human melanocytes", "assay_type": "cell-based", "settings": "for TA compared to 10 nM αMSH: tyrosinase activity, cultured human melanocytes; for effect on tyrosinase activity, comparison / concentration at which significant stimulation of tyrosinase activity begins: human melanocytes, 6 days treatment", "protocol": "Peptides were tested on cultured human melanocytes for their capacity for stimulating tyrosinase activity, the rate-limiting enzyme for melanin synthesis. Melanocytes were treated every other day, for a total of 6 days, with increasing concentrations of peptides. Medium containing H^3-tyrosine, the substrate for tyrosinase, was added to melanocytes 24 hours before the end of the 6-day treatment. Tyrosinase activity was measured by determining the amount of ^3H2O generated as […] is catalyzed by tyrosinase for melanin synthesis.\n(§1) Peptides were tested as described in Example 4 above on cultured human melanocytes for their capacity to activate MC1R, as measured by stimulating cAMP formation, and for their capacity for stimulating tyrosinase activity, the rate-limiting enzyme for melanin synthesis. The tested peptides were synthesized according to the formula: Ar(CH2)mX^1—X^2—CO—X^3—X^4—X^5-(Trp)n-NX^6R wherein X^1 and X^2 are absent, X^3 is His, X^5 is Arg, and X^6 is H. X^4 amino acids were in the D-stereoisomer form, unless otherwise noted."}, "MC1R [1]": {"molecular_target": "T1, MC1R (Homo sapiens, UniProt Q01726)", "T1 sequence (Q01726 whole entry)": "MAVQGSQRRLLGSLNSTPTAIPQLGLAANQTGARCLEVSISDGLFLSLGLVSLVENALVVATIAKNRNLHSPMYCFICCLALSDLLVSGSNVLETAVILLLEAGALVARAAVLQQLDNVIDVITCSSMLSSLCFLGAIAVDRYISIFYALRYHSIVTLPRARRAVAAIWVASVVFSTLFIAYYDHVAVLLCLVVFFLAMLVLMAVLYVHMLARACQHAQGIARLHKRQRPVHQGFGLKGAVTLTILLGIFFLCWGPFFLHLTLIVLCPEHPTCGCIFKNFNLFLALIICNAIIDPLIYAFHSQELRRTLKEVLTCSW", "assay": "Stimulation of cAMP formation in cultured human melanocytes", "assay_type": "cell-based", "parameters": "endogenous in cells; host or cells: cultured human melanocytes", "settings": "for cAMP compared to 10 nM αMSH: cultured human melanocytes", "protocol": "Peptides were tested on cultured human melanocytes for their capacity to activate MC1R, as measured by stimulating cAMP formation. After 45 minutes of treatment with different concentrations of peptides, cAMP levels were measured using a I^125-labeled radioimmunoassay kit.\nas §1"}, "MC1R [2]": {"molecular_target": "T1, MC1R", "assay": "cAMP stimulation in heterologous cells expressing hMC1R", "assay_type": "cell-based", "parameters": "expressed in transfected cells", "settings": "for HMC1R % MAX. ACTIVITY: cAMP, heterologous cells", "protocol": "(§2) Receptor selectivity of peptide agonists for hMC1R was determined by stimulation of cAMP in heterologous cells expressing different human melanocortin receptors (MC1R, MC3R, MC4R, and MC5R)."}, "hMC5R": {"molecular_target": "T2, hMC5R (Homo sapiens, UniProt P33032)", "T2 construct": "expressed in transfected cells", "T2 sequence (P33032 whole entry)": "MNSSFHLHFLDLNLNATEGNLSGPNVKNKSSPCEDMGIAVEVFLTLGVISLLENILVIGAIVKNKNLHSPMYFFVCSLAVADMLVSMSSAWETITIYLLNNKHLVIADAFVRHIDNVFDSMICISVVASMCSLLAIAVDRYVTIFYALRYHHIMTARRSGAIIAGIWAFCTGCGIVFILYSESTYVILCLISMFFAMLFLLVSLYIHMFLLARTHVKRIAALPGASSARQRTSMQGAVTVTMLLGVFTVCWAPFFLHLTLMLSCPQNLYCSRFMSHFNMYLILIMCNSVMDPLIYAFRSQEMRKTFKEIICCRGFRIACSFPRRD", "assay": "cAMP stimulation in heterologous cells expressing hMC5R", "assay_type": "cell-based", "protocol": "as §2"}, "[3]": {"test_system": "UV-irradiated human melanocytes", "assay": "Repair of UV-induced cyclobutane pyrimidine dimers (CPD)", "assay_type": "cell-based", "settings": "peptide at 1 nM, 48 hours post UV", "protocol": "To investigate the effects of peptides on the repair of UV-induced DNA damage, levels of cyclobutane pyrimidine dimers (CPD), the major form of DNA photoproducts, were measured in UV-irradiated human melanocytes with or without peptide treatment. Melanocytes were pretreated with the peptides for 4 days prior to, and for 48 hours post UV exposure, harvested, immunostained by a specific antibody for CPD, and analyzed by flow cytometry."}, "hMC3R": {"molecular_target": "T3, hMC3R (Homo sapiens, UniProt P41968)", "T3 construct": "expressed in transfected cells", "T3 sequence (P41968 whole entry)": "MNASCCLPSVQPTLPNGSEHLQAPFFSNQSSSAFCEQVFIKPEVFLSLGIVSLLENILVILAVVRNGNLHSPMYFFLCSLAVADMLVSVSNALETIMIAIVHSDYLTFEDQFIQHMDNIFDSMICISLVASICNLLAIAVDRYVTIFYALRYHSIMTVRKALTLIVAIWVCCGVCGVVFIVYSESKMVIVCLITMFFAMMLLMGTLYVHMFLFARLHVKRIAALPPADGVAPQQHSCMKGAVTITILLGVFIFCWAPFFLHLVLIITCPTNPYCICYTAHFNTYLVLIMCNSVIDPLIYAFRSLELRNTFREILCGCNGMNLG", "assay": "cAMP stimulation in heterologous cells expressing hMC3R", "assay_type": "cell-based", "protocol": "as §2"}, "hMC4R": {"molecular_target": "T4, hMC4R (Homo sapiens, UniProt P32245)", "T4 construct": "expressed in transfected cells", "T4 sequence (P32245 whole entry)": "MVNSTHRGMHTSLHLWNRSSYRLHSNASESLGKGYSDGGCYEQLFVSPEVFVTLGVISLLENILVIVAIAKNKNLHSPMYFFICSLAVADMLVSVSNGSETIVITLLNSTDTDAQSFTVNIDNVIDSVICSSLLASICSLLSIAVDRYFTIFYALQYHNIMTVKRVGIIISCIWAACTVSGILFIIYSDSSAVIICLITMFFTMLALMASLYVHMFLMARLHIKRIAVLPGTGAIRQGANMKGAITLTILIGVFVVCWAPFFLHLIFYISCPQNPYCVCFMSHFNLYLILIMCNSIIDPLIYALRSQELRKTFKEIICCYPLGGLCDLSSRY", "assay": "cAMP stimulation in heterologous cells expressing hMC4R", "assay_type": "cell-based", "protocol": "as §2"}, "[4]": {"assay": "Peptide storage stability by HPLC", "assay_type": "physicochemical", "settings": "lyophilized, open air, room temperature, 4 months", "protocol": "LK-513 (Ph(CH2)3CO-His-(D-4-Bip)-Arg-NHMe) was tested for stability and degradation over a storage period. The peptide was stored in a lyophilized form in open air at room temperature for 4 months. After 4 months, HPLC was performed on a test sample of the peptide in order to measure degradation, using standard methods (FIG. 1). […] Without being bound by theory, it is believed that the enhanced stability is a product of the absence of amide bonds between natural L-L-amino acids in the tripeptides and the existence of only one amide bond between natural amino acids in the tetrapeptides (Arg-Trp). Amide bonds between non-natural D- and natural L-amino acids are less prone to chemical and enzymatic hydrolysis, as evidenced by the FIG. 1. Further, the bulk and hydrophobicity of the X4 amino acid (D-Phe or a bulky hydrophobic analog thereof, such as D-4-Bip in the case of LK-513) shield the polar amid bonds of the peptide from chemical and enzymatic degradation."}, "[5]": {"settings": "human melanocytes, 45 minutes of treatment"}},
  "note": "“Also recorded” adds a separate entry of the source.",
  "data": [
    {"compound": "Ph(CH2)3CO-His-(D-1-Nal)-Arg-NH2 [510P]", "values": [
      {"measurement": "TA compared to 10 nM αMSH", "setting": "tyrosinase", "value": "NR (NR = No Response/inactive at 10 nM)"}
    ]},
    {"compound": "Ph(CH2)3CO-His-(D-2-Nal)-Arg-NHMe [517P]", "values": [
      {"measurement": "TA compared to 10 nM αMSH", "setting": "tyrosinase", "value": "<<<"}
    ]},
    {"compound": "Ph(CH2)3CO-His-(D-1-Nal)-Arg-NHMe [512P]", "values": [
      {"measurement": "TA compared to 10 nM αMSH", "setting": "tyrosinase", "value": "NR (NR = No Response/inactive at 10 nM)"}
    ]},
    {"compound": "Ph(CH2)3CO-His-(D-4-Bip)-Arg-NHEt [493P]", "values": [
      {"measurement": "cAMP compared to 10 nM αMSH", "setting": "MC1R [1]", "value": "<<"}
    ]},
    {"compound": "4-FC6H4CH2CO-His-(D-1-Nal)-Arg-NHEt [495P]", "values": [
      {"measurement": "cAMP compared to 10 nM αMSH", "setting": "MC1R [1]", "value": "NR (NR = No Response/inactive at 10 nM)"}
    ]},
    {"compound": "Ph(CH2)3CO-His-(D-2-Nal)-Arg-Trp-NH2 [468P]", "values": [
      {"measurement": "cAMP compared to 10 nM αMSH", "setting": "MC1R [1]", "value": "≤"}
    ]},
    {"compound": "melanotan II [MT-II, reference compound]", "values": [
      {"measurement": "HMC1R % MAX. ACTIVITY", "setting": "MC1R [2]", "value": 103, "unit": "%"},
      {"measurement": "HMC5R % MAX. ACTIVITY", "setting": "hMC5R; cAMP, heterologous cells", "value": 100, "unit": "%"}
    ]},
    {"compound": "4-IC6H4CH2CO-His-(D-Phe)-Arg-Trp-NH2 [488P]", "values": [
      {"measurement": "cAMP compared to 10 nM αMSH", "setting": "MC1R [1]", "value": ">>"}
    ]},
    {"compound": "4-FC6H4CH2CO-His-(D-4-FPhe)-Arg-Trp-NH2 [205P]", "values": [
      {"measurement": "cAMP compared to 10 nM αMSH", "setting": "MC1R [1]", "value": "≤"},
      {"measurement": "TA compared to 10 nM αMSH", "setting": "tyrosinase", "value": "≥"}
    ]},
    {"compound": "Ph(CH2)3CO-His-(D-2-Nal)-Arg-NHEt [492P]", "values": [
      {"measurement": "cAMP compared to 10 nM αMSH", "setting": "MC1R [1]", "value": "NR (NR = No Response/inactive at 10 nM)"}
    ]},
    {"compound": "N=C(N)NCCC[C@H](NC(=O)[C@@H](Cc1ccccc1)NC(=O)[C@H](Cc1c[nH]cn1)NC(=O)CCCc1ccccc1)C(=O)N[C@@H](Cc1c[nH]c2ccccc12)C(N)=O", "note": "[LK-184, Ph(CH2)3CO-His-(D-Phe)-Arg-Trp-NH2]", "values": [
      {"measurement": "HMC1R % MAX. ACTIVITY", "setting": "MC1R [2]", "value": 128, "unit": "%"},
      {"measurement": "concentration giving maximal levels of cAMP", "setting": "MC1R [1]; [5]", "value": 10, "unit": "nM"},
      {"measurement": "effect on tyrosinase activity, comparison", "setting": "tyrosinase", "value": "comparable effects in tyrosinase activity"},
      {"measurement": "CPD removal compared with 10 nM α-MSH", "setting": "[3]", "value": "same effect at 1 nM on CPD removal as 10 nM a-MSH; also recorded: same effect at 1 nM on CPD removal as 10 nM α-MSH"},
      {"measurement": "HMC3R % MAX. ACTIVITY", "setting": "hMC3R; cAMP, heterologous cells", "value": 85, "unit": "%"},
      {"measurement": "HMC4R % MAX. ACTIVITY", "setting": "hMC4R; cAMP, heterologous cells", "value": 102, "unit": "%"},
      {"measurement": "HMC5R % MAX. ACTIVITY", "setting": "hMC5R; cAMP, heterologous cells", "value": 39, "unit": "%"}
    ]},
    {"compound": "Ph(CH2)3CO-His-(D-4-ClPhe)-Arg-Trp-NH2 [473P]", "values": [
      {"measurement": "cAMP compared to 10 nM αMSH", "setting": "MC1R [1]", "value": "=; >"}
    ]},
    {"compound": "CNC(=O)[C@H](CCCNC(=N)N)NC(=O)[C@@H](Cc1ccc(-c2ccccc2)cc1)NC(=O)[C@H](Cc1c[nH]cn1)NC(=O)CCCc1ccccc1", "note": "[LK-513, Ph(CH2)3CO-His-(D-4-Bip)-Arg-NHMe]", "values": [
      {"measurement": "potency in activation of MC1R compared with MT-II", "setting": "MC1R [2]", "value": "about as potent as MT-II"},
      {"measurement": "HMC1R % MAX. ACTIVITY", "setting": "MC1R [2]", "value": 95, "unit": "%"},
      {"measurement": "cAMP compared to 10 nM αMSH", "setting": "MC1R [1]", "value": "<"},
      {"measurement": "potency in stimulating cAMP formation, comparison", "setting": "MC1R [1]; [5]", "value": "about ten times less potent than a-MSH; also recorded: about ten times less potent than α-MSH"},
      {"measurement": "stability and degradation on storage (HPLC)", "setting": "[4]", "value": "highly stable and resistant to degradation, showing only a single HPLC peak; also recorded: highly stable and substantially free of degradation"},
      {"measurement": "concentration at which significant stimulation of tyrosinase activity begins", "setting": "tyrosinase", "value": 1, "unit": "nM"},
      {"measurement": "TA compared to 10 nM αMSH", "setting": "tyrosinase", "value": "<"},
      {"measurement": "binding of MC3R", "setting": "hMC3R", "value": "do not bind"},
      {"measurement": "binding of MC4R", "setting": "hMC4R", "value": "do not bind"},
      {"measurement": "binding of MC5R", "setting": "hMC5R", "value": "do not bind"}
    ]},
    {"compound": "N=C(N)NCCC[C@H](NC(=O)[C@@H](Cc1ccc(-c2ccccc2)cc1)NC(=O)[C@H](Cc1c[nH]cn1)NC(=O)CCCc1ccccc1)C(N)=O", "note": "[LK-511, Ph(CH2)3CO-His-(D-4-Bip)-Arg-NH2]", "values": [
      {"measurement": "potency in activation of MC1R compared with MT-II", "setting": "MC1R [2]", "value": "about as potent as MT-II"},
      {"measurement": "HMC1R % MAX. ACTIVITY", "setting": "MC1R [2]", "value": 88, "unit": "%"},
      {"measurement": "cAMP compared to 10 nM αMSH", "setting": "MC1R [1]", "value": "<"},
      {"measurement": "potency in stimulating cAMP formation, comparison", "setting": "MC1R [1]; [5]", "value": "about ten times less potent than a-MSH; also recorded: about ten times less potent than α-MSH"},
      {"measurement": "concentration at which significant stimulation of tyrosinase activity begins", "setting": "tyrosinase", "value": 1, "unit": "nM"},
      {"measurement": "TA compared to 10 nM αMSH", "setting": "tyrosinase", "value": "<"},
      {"measurement": "binding of MC3R", "setting": "hMC3R", "value": "do not bind"},
      {"measurement": "HMC3R EC50", "setting": "hMC3R; cAMP, heterologous cells", "value": "INACTIVE"},
      {"measurement": "binding of MC4R", "setting": "hMC4R", "value": "do not bind"},
      {"measurement": "HMC4R EC50", "setting": "hMC4R; cAMP, heterologous cells", "value": "INACTIVE"},
      {"measurement": "binding of MC5R", "setting": "hMC5R", "value": "do not bind"},
      {"measurement": "HMC5R EC50", "setting": "hMC5R; cAMP, heterologous cells", "value": "INACTIVE"}
    ]},
    {"compound": "4-FC6H4CH2CO-His-(D-4-tBuPhe)-Arg-NHEt [498P]", "values": [
      {"measurement": "cAMP compared to 10 nM αMSH", "setting": "MC1R [1]", "value": "NR** (NR = No Response/inactive at 10 nM)"}
    ]},
    {"compound": "Ph(CH2)3CO-His-(D-Phe)-Arg-Trp-NHEt [LK-487]", "values": [
      {"measurement": "cAMP compared to 10 nM αMSH", "setting": "MC1R [1]", "value": ">*"},
      {"measurement": "potency in stimulating cAMP formation, comparison", "setting": "MC1R [1]; [5]", "value": "equipotent to LK-467"},
      {"measurement": "effect on tyrosinase activity, comparison", "setting": "tyrosinase", "value": "equipotent to LK-467"}
    ]}
  ]
}
